Patent US20030082101A1, “Accelerators for increasing the rate of formation of free radicals and reactive oxygen species” (Cavalier Discovery, priority 2001, published 2003)
Where a name gives a salt, the structure may show the parent alone.

Legend:
Type in all cases: biochemical
deoxyribose [1] = assay: TBARS assay, chelants 0.07-0.11 mM during ultrasound exposure, ferrous iron (Example 3); settings: 0.025 mM ferrous iron, 0.07-0.11 mM chelant, 0.01% hydrogen peroxide, pH 7.5, 30 W 2 MHz 10 min
Experimental: (§1) The following example uses the thiobarbituric acid-reactive substances (TBARS) assay to identify chelants that enhance radical production during ultrasound exposure. All solutions were prepared in pH 7.5 phosphate buffer containing approximately 2 mM deoxyribose, 0.01% hydrogen peroxide, 0.025 mM ferrous iron, and 0.07-0.11 mM chelant. Solutions were sonicated at 30 W, 2 MHz, 32-34 degrees Celsius for ten minutes using a PZT-8 1.8 cm diameter custom transducer. The sonicated solution was placed on an orbit shaker rotating at 25 RPM to ensure even sonication of the solution while the transducer was held stationary. Control solutions were placed in a controlled temperature bath at 32-34 degrees Celsius without sonication. After 10 minutes of treatment, 1 mL test solution was placed in a test tube followed by 2 mL of 1% 2-thiobarbituric acid and 2 mL of 2.8% trichloroacetic acid. The test tube was sealed and heated to 90 degrees Celsius for 30 minutes and allowed to cool to room temperature for 20 minutes. The absorbance at 532 nm was measured. The enhanced radical production during ultrasound exposure was determined by comparing the amount of deoxyribose degradation that occurs in the sonicated solution versus the control solution using the following equation: [formula]

deoxyribose [2] = assay: TBARS assay, chelants 0.07-0.11 mM during ultrasound exposure, ferric iron (Example 4); settings: 0.02-0.03 mM ferric iron, 0.07-0.11 mM chelant, 0.01% hydrogen peroxide, pH 7.5, 30 W 2 MHz 10 min
Experimental: as §1, with “0.02-0.03” for “0.025”, “ferric” for “ferrous”

[3] = Free radical production when exposed to ultrasound and a metal (statements in the description); settings: for free radical production: when exposed to ultrasound and a metal
deoxyribose [4] = assay: TBARS assay, anti tumor antibiotics, ultrasound (Example 12); settings: 0.005 mM ferrous iron, 0.005 mM ferric iron, 15 min
Experimental: The following example uses the thiobarbituric acid-reactive substances (TBARS) assay to identify anti tumor antibiotics that enhance radical production during ultrasound. All solutions are prepared in pH 7.5 phosphate buffer containing approximately 2 mM deoxyribose, 0.01% hydrogen peroxide, 0.005 mM ferrous iron, 0.005 mM ferric iron, and the additives indicated in the table below. Solutions are sonicated at 30 W, 2 MHz, 32-34 degrees Celsius for fifteen minutes using a PZT-8 1.8 cm diameter custom transducer. The sonicated solution is placed on an orbit shaker rotating at 25 RPM to ensure even sonication of the solution while the transducer is held stationary. Control solutions are placed in a controlled temperature bath at 32-34 degrees Celsius without sonication. After 15 minutes of treatment, 1 mL test solution was placed in a test tube followed by 2 mL of 1% 2-thiobarbituric acid and 2 mL of 2.8% trichloroacetic acid. The test tube is sealed and heated to 90 degrees Celsius for 30 minutes and allowed to cool to room temperature for 20 minutes. The absorbance at 532 nm is measured. The enhanced radical production during ultrasound exposure is determined by comparing the amount of deoxyribose degradation that occurs in the sonicated solution versus the control solution using the following equation: [formula]

deoxyribose [5] = assay: TBARS assay, chelants during ultrasound exposure, ferric iron (Example 2); settings: 0.02-0.03 mM ferric iron, 0.04-0.05 mM chelant, 0.01% hydrogen peroxide, pH 7.5, 30 W 2 MHz 10 min
Experimental: as §1, with “0.02-0.03” for “0.025”, “ferric” for “ferrous”, “0.04-0.05” for “0.07-0.11”

deoxyribose [6] = assay: TBARS assay, chelants during ultrasound exposure, ferrous iron (Example 1); settings: 0.025 mM ferrous iron, 0.03-0.04 mM chelant, 0.01% hydrogen peroxide, pH 7.5, 30 W 2 MHz 10 min
Experimental: as §1, with “and 0.03-0.04” for “and 0.07-0.11”, “exposure is” for “exposure was”

## c1cnc2c(c1)ccc1cccnc12 [1,10 Phenanthroline]
Deoxyribose [1]
  % Ultrasound Mediated Activity vs Control: 33%

## O=S(=O)(O)c1ccc(-c2nnc(-c3ccccn3)nc2-c2ccc(S(=O)(=O)O)o2)o1 [3-(2-Pyridyl)-5,6-bis(5-sulfo-2-furyl)-1,2,4-triazine]
Deoxyribose [2]
  % Ultrasound Mediated Activity vs Control: 207%
Deoxyribose [1]
  % Ultrasound Mediated Activity vs Control: 50%

## O=S(=O)(O)c1ccc(-c2nnc(-c3ccccn3)nc2-c2ccc(S(=O)(=O)O)cc2)cc1 [3-(2-Pyridyl)-5,6-diphenyl-1,2,4-triazine-4,4-disulfonic acid]
Deoxyribose [2]
  % Ultrasound Mediated Activity vs Control: 136%
Deoxyribose [1]
  % Ultrasound Mediated Activity vs Control: 45%

## Nc1ncnc2c1ncn2[C@@H]1O[C@H](COP(=O)(O)OP(=O)(O)O)[C@@H](O)[C@H]1O [Adenosine diphosphate (ADP), Adenosine diphosphate]
[3]
  free radical production: increase free radical production
Deoxyribose [2]
  % Ultrasound Mediated Activity vs Control: 280%
Deoxyribose [1]
  % Ultrasound Mediated Activity vs Control: 26%

## Cc1c(C(=O)O)c(O)cc2c1C(=O)c1c(O)c([C@@H]3O[C@H](CO)[C@@H](O)[C@H](O)[C@H]3O)c(O)c(O)c1C2=O [Carminic acid]
Deoxyribose [4]; 0.025 mM additive
  % Ultrasound Mediated Activity vs Control: >100%

## COC1C(O)CC(OC2CC(Oc3cc4cc5c(c(O)c4c(O)c3C)C(=O)[C@@H](OC3CC(OC4CC(OC6CC(C)(O)C(OC(C)=O)C(C)O6)C(O)C(C)O4)C(O)C(C)O3)[C@H]([C@H](OC)C(=O)[C@@H](O)[C@@H](C)O)C5)OC(C)C2OC(C)=O)OC1C (stereo partly drawn) [Chromomycin]
Deoxyribose [4]; 0.025 mM additive
  % Ultrasound Mediated Activity vs Control: >100%

## O=C(O)CC(O)(CC(=O)O)C(=O)O [Citrate]
[3]
  free radical production: increase free radical production
Deoxyribose [2]
  % Ultrasound Mediated Activity vs Control: 161%
Deoxyribose [1]
  % Ultrasound Mediated Activity vs Control: 31%

## COc1cccc2c1C(=O)c1c(O)c3c(c(O)c1C2=O)C[C@@](O)(C(C)=O)C[C@@H]3O[C@H]1C[C@H](N)[C@H](O)[C@H](C)O1 [Daunomycin]
Deoxyribose [4]; 0.1 mM additive
  % Ultrasound Mediated Activity vs Control: >100%

## CC(=O)N(O)CCCCCNC(=O)CCC(=O)N(O)CCCCCNC(=O)CCC(=O)N(O)CCCCCN [Desferrioxamine mesylate]
Deoxyribose [5]
  % Ultrasound Mediated Activity vs Control: 81%
Deoxyribose [6]
  % Ultrasound Mediated Activity vs Control: 92%

## O=C(O)CN(CC(=O)O)C1CCCCC1N(CC(=O)O)CC(=O)O (stereo not drawn) [Diaminocyclohexane-N,N,N′,N′-tetraacetic acid]
Deoxyribose [5]
  % Ultrasound Mediated Activity vs Control: 446%
Deoxyribose [6]
  % Ultrasound Mediated Activity vs Control: 61%

## O=C(O)CN(CCN(CC(=O)O)CC(=O)O)CCN(CC(=O)O)CC(=O)O [Diethylenetriaminepentaacetic acid]
Deoxyribose [5]
  % Ultrasound Mediated Activity vs Control: 177%

## COc1cccc2c1C(=O)c1c(O)c3c(c(O)c1C2=O)C[C@@](O)(C(=O)CO)C[C@@H]3O[C@H]1C[C@H](N)[C@@H](O)[C@H](C)O1 [Epirubicin]
Deoxyribose [4]; 0.1 mM additive
  % Ultrasound Mediated Activity vs Control: >100%

## O=C(O)CN(CCOCCOCCN(CC(=O)O)CC(=O)O)CC(=O)O [Ethylene glycol-bis(2-aminoethyl)-N,N,N′,N′-tetraacetic acid]
Deoxyribose [5]
  % Ultrasound Mediated Activity vs Control: 520%
Deoxyribose [6]
  % Ultrasound Mediated Activity vs Control: 29%

## CO[C@@]12[C@H](COC(N)=O)C3=C(C(=O)C(C)=C(N)C3=O)N1C[C@@H]1N[C@@H]12 [Mitomycin C]
Deoxyribose [4]; 0.025 mM additive
  % Ultrasound Mediated Activity vs Control: >100%

## O=C(O)CN(CCO)CCN(CC(=O)O)CC(=O)O [N-(2-Hydroxyethyl)ethylenediamine-N,N′,N′-triacetic acid]
Deoxyribose [5]
  % Ultrasound Mediated Activity vs Control: 224%
Deoxyribose [6]
  % Ultrasound Mediated Activity vs Control: 34%

## O=C(O)CN(CC(=O)O)CC(=O)O [Nitriloacetic acid]
Deoxyribose [5]
  % Ultrasound Mediated Activity vs Control: 238%
Deoxyribose [6]
  % Ultrasound Mediated Activity vs Control: 69%

## O=C(O)c1ccccn1 [Picolinic Acid]
Deoxyribose [2]
  % Ultrasound Mediated Activity vs Control: 175%
Deoxyribose [1]
  % Ultrasound Mediated Activity vs Control: 53%

## COC1=C(N)C(=O)c2nc(-c3nc(C(=O)O)c(C)c(-c4ccc(OC)c(OC)c4O)c3N)ccc2C1=O [Streptonigrin]
Deoxyribose [4]; 0.025 mM additive
  % Ultrasound Mediated Activity vs Control: >100%

## O=C(O)P(=O)(O)O [phosphonoformic acid]
[3]; added to an iron/EDTA system, ultrasound
  radical production: radical production was increased

## O=S([O-])[O-].[Na+].[Na+] [sodium sulfite]
[3]
  free radical production: increase free radical production

## Olivomycin
Deoxyribose [4]; 0.025 mM additive
  % Ultrasound Mediated Activity vs Control: >100%
